Read-outs that look alike come from different tables or passages of the source.
Legend:
[1] = test system: CXCL10, IL17α, IL22, IL36γ, CCL20, SerpinB4 gene expression in Th17 stimulated human skin; experiment: Th17 stimulated human skin explants, RT-qPCR of biomarkers; type: cell-based; details: for inhibition at 10 µM: Homo sapiens, calculated to Th17 stimulated control, three skin donors
Text: Human skin biopsy tissue was stimulated to induce a Th17 immuno-phenotype using a method derived from Feghali-Bostwick et al. Induction of a Th17 phenotype in human skin—a mimic of dermal inflammatory diseases, Methods and Protocols, 2, 45 (2019). The pharmacodynamic assay described therein involves a similar paradigm to elicit a Th2 response and is used to evaluate the therapeutic potential of the active compounds (e.g., BETi1; and
Freshly excised healthy human skin tissue from abdominoplasties is defatted, cleaned and sectioned into 7 mm biopsies. The biopsies are placed in Transwell® inserts with the epidermis apical and exposed to air and the dermis submerged in media in the basal chamber. The biopsies are pre-treated overnight at 37° C., 5% CO2 with different compounds and controls added to the media in the basal chamber.
The next day, contents of the basal chamber is replaced with fresh media containing the test compound (listed below) and a stimulation cocktail for either Th2 inflammation (proprietary of service provider cocktail) or Th17 inflammation (mix of antibodies against CD3, CD28, IL-4, IFNγ and recombinant IL-1β, IL-6, IL-21, TGF-β). The biopsies are incubated at 37° C., 5% CO2 for a further 24 hrs.
A list of all the treatments is provided below: • 1. Untreated control (for both stimulations) • 2. Th2 stimulated control • 3. Th17 stimulated control • 4. Th2+BETia at 0.01, 0.04, 0.16, 0.63, 2.50, and 10 μM • 5. Th2+BETi1 at 0.01, 0.04, 0.16, 0.63, 2.50, and 10 μM • 6. Th2+Ruxolitinib at 0.01, 0.04, 0.16, 0.63, 2.50, and 10 μM • 7. Th2+betamethasone valerate 210 μM (equivalent to 0.01%) • 8. Th17+BETia at 10 μM • 9. Th17+BETi1 at 10 μM • 10. Th17+Ruxolitinib at 10 μM • 11. Th17+betamethasone valerate 210 μM (equivalent to 0.01%)
After harvesting, the biopsies are cut in half, and one half is homogenized and used for RNA extraction by standard methods and inflammatory pathways is assessed by RT-qPCR. The ability of BETi1 or BETia to inhibit the activity of up to six biomarkers per stimulation is reported as percent activity calculated to stimulated control and fold change in gene expression calculated to untreated control with respect to Th2 (IL4, IL13, IL31, CCL17, CCL26, CCL2) and Th17 (CXCL10, IL17α, IL22, IL36γ, CCL20, SerpinB4). Statistical analysis is performed on data sets from all 3 donors combined and compares the percent inhibition of each biomarker by each treatment calculated to its respective vehicle.
qPCR values were calculated using the relative quantification approach outlined by Livak, et al (2001) (Section 9, Reference 2). The Ct values (threshold cycle) defined as the fractional cycle number at which the amount of amplified target reaches a fixed threshold, were normalised to the Ct value of an internal biomarker or ‘housekeeping gene’ (GAPDH). The higher limit of detection was set at a Ct value of 40, and any target having not reached Ct by 40 cycles was set to this value. The delta Ct values (dt(Ct)) refers to the Ct of the gene of interest minus the Ct of the internal biomarker. The ddt(Ct) is the dt(Ct) value of the gene minus the average dt(Ct) value of the untreated samples. The ddt(Ct) is converted to power by the equation; =power(2,dt(Ct)). Fold change was calculated as ratio of the power of the gene of interest divided by the average power of the untreated samples. This normalizes the untreated samplers to a value of 1. For the comparison of multiple skin donors, the stimulated samples were normalized to 100% maximum activity (such to normalize variability between different skin donors). Percent activity was calculated as the percent increase or decrease in stimulation compared to the stimulated samples set at 100% maximum activity. Percent change was calculated as: Inhibition=(100−(avg % activity/stimulated)*100). Statistical analysis was performed using One-way ANOVA with Dunnett's Multiple Comparisons (non parametric). […]

[2] = test system: bleomycin induced pulmonary fibrosis; experiment: Bleomycin mice: lung histopathology (H & E, Masson's Trichrome), Hübner-modified Ashcroft score; type: in vivo, C57BL/6 male mice; details: for mean score, Hübner-modified Ashcroft scale of 0-8: bleomycin
Text: Seven mice from each group are randomly submitted for histopathology analysis (Hematoxylin and eosin (H & E) and Masson's Trichrome (MT)). The lungs are trimmed as needed and processed overnight in a Citadel 1000 automated processor by Shandon Scientific. Post-processing, lungs are embedded in paraffin blocks and sectioned in the following fashion: several slides are generated with lung sections in the first 1 mm of tissue, middle portions of the tissue, and finally near the latter third of the tissue in order to glean histological alterations throughout the lung. Sections are cut at […] thickness with a rotary microtome. Several slides per lung (at each depth) are stained with a H & E stain (reagents from Fisher Scientific) and MT Stain (Sigma kit HT15).
Pathological alterations are evaluated by a pathologist in blind manner (both dosage and treatment programs are unknown to the pathologist). The subacute interstitial inflammation and Agonal Hemorrhage are evaluated mainly based on the H & E staining. Fibrotic modifications are assessed morphologically and semi-quantitatively graded according to the scale defined by Ashcroft and modified by Hübner. Three sections for each lung sample are stained with MT and scored on a scale of 0-8. The final score is expressed as a mean of individual scores observed across all microscopic fields. In order to quantify the distribution of pulmonary fibrosis, the Ashcroft scores are graded in 3 general classes of increasing values: ranging from 0-3 (mild), 4 (moderate) and ≥5 (severe).
Three sections for each lung sample were stained with H & E and Masson's Trichrome and scored on a Hübner-modified Ashcroft scale of 0-8. Three pictorial representations for each of groups 1-5 are shown in FIGS. 19A-E respectively (100×) and one representation for each of groups 1-5 is shown in FIGS. 19F-J (40×). Histology provides a picture or snapshot of the absence or presence of fibrosis. […] Other groups with higher concentrations of BETi also appeared to lessen bleomycin induced fibrosis but to a lesser degree.

Cn1cc(-c2cccc(O)c2Oc2ccccc2)c2cc[nH]c2c1=O [BETi1]
inhibition at 10 µM ([1]; read-out: % inhibition CXCL10): 95% | inhibition at 10 µM ([1]; read-out: % inhibition IL17α): 99.5% | inhibition at 10 µM ([1]; read-out: % inhibition IL36γ): 95% | inhibition of IL-17, IL-36 and CXCL10 release relative to vehicle control ([1]; Th17-stimulated human skin tissue): greater than 95% | Mean Histology Score (Hubner-modified Ashcroft) ([2]; Group 3 Bleo/BETi1 0.06 mg/mL): 3.00 | Mean Histology Score (Hubner-modified Ashcroft) ([2]; Group 4 Bleo/BETi1 0.6 mg/mL): 4.64 | Mean Histology Score (Hubner-modified Ashcroft) ([2]; Group 5 Bleo/BETi1 3 mg/mL): 5.52 | mean score, Hübner-modified Ashcroft scale of 0-8 ([2]; 0.06 mg/mL): 3.00 | mean score, Hübner-modified Ashcroft scale of 0-8 ([2]; 0.6 mg/mL): 4.64 | mean score, Hübner-modified Ashcroft scale of 0-8 ([2]; 3 mg/mL): 5.52

— patent US20250339409A1, “USES OF PAN BET INHIBITORS” (VYNE THERAPEUTICS INC., priority 2021, published 2025)
